Reference: the supplement of paper PMC10307832

Columns and labels:
Test in all cases: relative viability (nuclei count vs DMSO), 5 days (fraction); higher = more cells survive
[1] = compound: C1=CC=C2C(=C1)N=C(S2)C(C#N)C3=NC(=NC=C3)NCCC4=CN=CC=C4 + N=C(N)NC(=N)NCCc1ccccc1 [Phenformin] (partner 250 µM)
Summary of the method: (§1)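 Nuclei were stained with Hoechst during a one-step fixation (final 0.05% Triton X-100, 1% formaldehyde, 1 ug/ml Hoechst) carried out 5 days after dosing, then counted on 4× images. The cells, lung cancer lines in 1536-well plates, had been dosed by pin tool the day after seeding with one drug alone or a fixed anchor-drug dose plus five library-drug doses (not always all listed) in √10 steps. Relative viability is the nuclei count in treated wells divided by that in vehicle wells, and each value is the median of duplicate plates.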

CUDC-101 + Phenformin = compound: C#Cc1cccc(Nc2ncnc3cc(OC)c(OCCCCCCC(=O)NO)cc23)c1 [CUDC-101] + N=C(N)NC(=N)NCCc1ccccc1 [Phenformin] (partner 250 µM)
Summary of the method: as §1

[2] = compound: C1=CC=C2C(=C1)N=C(S2)C(C#N)C3=NC(=NC=C3)NCCC4=CN=CC=C4 + CC(C)C[C@H](NC(=O)[C@H](Cc1ccccc1)NC(=O)c1cnccn1)B(O)O [Bortezomib] (partner 0.002 µM)
Summary of the method: as §1

NVP-TAE684 + Olaparib = compound: COc1cc(N2CCC(N3CCN(C)CC3)CC2)ccc1Nc1ncc(Cl)c(Nc2ccccc2S(=O)(=O)C(C)C)n1 [NVP-TAE684] + O=C(c1cc(Cc2n[nH]c(=O)c3ccccc23)ccc1F)N1CCN(C(=O)C2CC2)CC1 [Olaparib] (partner 8 µM)
Summary of the method: as §1

UMC-11
relative viability ([1]; first compound 0.005 µM): 0.3
relative viability ([1]; first compound 0.01581 µM): 0.315
relative viability ([1]; first compound 0.05 µM): 0.32
relative viability ([1]; first compound 0.1581 µM): 0.325
relative viability ([1]; first compound 0.5 µM): 0.336
relative viability (CUDC-101 + Phenformin; first compound 0.01 µM): 0.337
relative viability (CUDC-101 + Phenformin; first compound 0.03162 µM): 0.285
relative viability (CUDC-101 + Phenformin; first compound 0.1 µM): 0.262
relative viability (CUDC-101 + Phenformin; first compound 0.3162 µM): 0.167
relative viability (CUDC-101 + Phenformin; first compound 1 µM): 0.102
relative viability ([2]; first compound 0.005 µM): 0.458
relative viability ([2]; first compound 0.01581 µM): 0.695
relative viability ([2]; first compound 0.05 µM): 0.901
relative viability ([2]; first compound 0.1581 µM): 0.875
relative viability ([2]; first compound 0.5 µM): 0.488
relative viability (NVP-TAE684 + Olaparib; first compound 0.2 µM): 0.376
relative viability (NVP-TAE684 + Olaparib; first compound 0.6325 µM): 0.336
relative viability (NVP-TAE684 + Olaparib; first compound 2 µM): 0.228
